In general, IC50 refers to the concentration at which inhibition is half-maximal. For orientation: LD50 means the dose at which mortality reaches 50%. Read a high LD50 as lower toxicity.

Structures are written as SMILES. Entries after “also recorded” stand apart in the source; their conditions may differ. Where two headings read alike, the source gives them in different places.

The values that follow come from patent US4224332A, “1-Aza-[2,2,2]-bicyclooctanes and anti-depressant and anti-parkinsonian compositions thereof” (Pharmindustrie, priority 1978, dated 1980).

Data set [1] has as its system uptake of the dopamine (DA). In words: inhibition of the uptake of dopamine (DA) by synaptosomes of the rat's brain, striatum. The format is biochemical. The following applies: in vitro; for IC50: rat brain synaptosomes, striatum.
Text: (§1) The results are expressed by an inhibiting concentration IC50, which represents the dose of product in micromoles per liter reducing by 50% the uptake of the noradrenaline (NA), the dopamine (DA), the serotonine (5-HT), or the choline in the specific regions of the brain (hypothalamus,striatum, medulla+pons) where the corresponding neurons predominate.
Data set [2] concerns uptake of the noradrenaline (NA). In words: inhibition of the uptake of noradrenaline (NA) by synaptosomes of the rat's brain, hypothalamus. The following applies: in vitro; for IC50: rat brain synaptosomes, hypothalamus. The format is biochemical.
Text: as §1
For data set [3], the system named is hypothermia caused by reserpine. Put plainly: action on hypothermia caused by reserpine in mice. In kind it is in vivo. The following applies: Mus musculus, po, read-out: ED50 p.o. (dose exerting an antihypothermic effect equal to 50% of that caused by 15 mg/kg per os of imipramine).
Experimental: The results are expressed by an ED50 or dose of product, in mg/kg, capable of exerting an antihypothermic effect equal to 50% of the antihypothermic effect caused by 15 mg/kg (per os) of imipramine.
Data set [4] concerns uptake of the serotonine (5-HT). In words: inhibition of the uptake of serotonine (5-HT) by synaptosomes of the rat's brain, medulla + pons. The format is biochemical. The following applies: in vitro; for IC50: rat brain synaptosomes, medulla + pons.
Text: as §1
For another data set, the system named is uptake of the choline. In words: inhibition of the uptake of choline by synaptosomes of the rat's brain, striatum. In kind it is biochemical. The following applies: in vitro; for IC50: rat brain synaptosomes, striatum.
Data set [5] can be described thus: acute toxicity, oral, male mouse CD1. The following applies: in vivo, 3 days observation. The source says: The acute toxicities of the compounds of formula (I) have been determined on the male mouse CD1 (Charles River), the products being administered orally. The LD50 have been calculated, after 3 days observation, by the cumulative method of J. J. REED and H. MUENCH. (Amer. J. Hyg. 27, 493, 1938), which is relied upon herein for this purpose and the disclosure incorporated by reference.

The mark [6] stands for this setting: compared with imipramine and nomifensine.

Text for uptake of the choline: as §1

As for `c1ccc(C2CN3CCC2(c2ccccc2)CC3)cc1` (stereo not drawn) [Example 4, 3,4-diphenyl-1-aza-[2,2,2]-bicyclooctane], in data set [1] (setting [6]), the “inhibiting effect on uptake of the dopamine at the level of the striatum, in words” value is “active on all the four mediators used; also recorded: very superior to that of imipramine; also recorded: comes near to the nomifensine”. Besides, the concentration for half-maximal inhibition (IC50) was 600 nM in data set [1], 45 nM in data set [2], 300 nM in data set [4] and 25000 nM in the data set with uptake of the choline. The “inhibiting effect on NA uptake, in words” value in data set [2] (compared with imipramine) was “active on all the four mediators used; also recorded: near to that of the imipramine”. Further, the ED50 in data set [3] turned out to be 2 mg/kg. The “inhibiting effect on 5-HT uptake, in words” value in data set [4] (compared with imipramine) is given as “active on all the four mediators used; also recorded: near to that of the imipramine”. Moreover, the “inhibiting activity on the neuronal uptake of the choline, in words” value with uptake of the choline (setting [6]) is “active on all the four mediators used; also recorded: near to that of the imipramine; also recorded: exerts on the neuronal uptake of the choline an inhibiting activity”. This compound also displayed an LD50 at 72 h in data set [5] of 200 mg/kg.
Regarding `CN(C)CCCN1c2ccccc2CCc2ccccc21` [Imipramine, reference compound], the IC50 in data set [1] came to 55000 nM; in data set [2], 130 nM; in data set [4] it was 80 nM; in the data set on uptake of the choline, 30000 nM. Moreover, the ED50 in data set [3] (mice, p.o., reserpine hypothermia) was found to be 3 mg/kg.
